Patent US6620828B2, “Thiazole compounds and pharmaceutical compositions for inhibiting protein kinases and methods for their use” (Agouron Pharmaceuticals, Inc., priority 1999, dated 2003)
Read-outs that look alike come from different tables or passages of the source. One block for each compound: values may come before it.

Assays:
[1] = target: T1, phosphorylated VEGF-R2Δ50 (FLVK-P) (Homo sapiens, UniProt P35968, DEL940-989/E990V); assay: VEGF-R2 coupled spectrophotometric (FLVK-P) assay; format: biochemical; details: for Ki: spectrophotometric assay; for FLVK-P % inhibition @ 50: at 50, concentration unit not printed (head nM)
T1 construct: VEGF-R2Δ50 contains residues 806-939 and 990-1171; made in house; host or cells: baculovirus/insect cells
T1 sequence (P35968 with tags, fused parts or gaps DEL940-989/E990V limits assumed): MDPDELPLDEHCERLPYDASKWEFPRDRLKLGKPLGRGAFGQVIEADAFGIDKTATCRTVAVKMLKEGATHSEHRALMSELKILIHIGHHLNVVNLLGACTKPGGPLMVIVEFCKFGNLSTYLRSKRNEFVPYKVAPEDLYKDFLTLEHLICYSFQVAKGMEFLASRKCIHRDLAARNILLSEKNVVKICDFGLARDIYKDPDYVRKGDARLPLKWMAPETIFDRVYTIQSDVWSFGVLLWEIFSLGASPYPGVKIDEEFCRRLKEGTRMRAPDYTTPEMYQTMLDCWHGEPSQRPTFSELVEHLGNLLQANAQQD
Source text: VEGF-R2 Construct for Assay: This construct determines the ability of a test compound to inhibit tyrosine kinase activity. A construct (VEGF-R2Δ50) of the cytosolic domain of human vascular endothelial growth factor receptor 2 (VEGF-R2) lacking the 50 central residues of the 68 residues of the kinase insert domain was expressed in a baculovirus/insect cell system. Of the 1356 residues of full-length VEGF-R2, VEGF-R2Δ50 contains residues 806-939 and 990-1171, and also one point mutation (E990V) within the kinase insert domain relative to wild-type VEGF-R2. Autophosphorylation of the purified construct was performed by incubation of the enzyme at a concentration of 4 μM in the presence of 3 mM ATP and 40 mM MgCl2 in 100 mM Hepes, pH 7.5, containing 5% glycerol and 5 mM DTT, at 4° C. for 2 h. […] See Parast et al., Biochemistry, 37, 16788-16801 (1998).
Coupled Spectrophotometric (FLVK-P) Assay
The production of ADP from ATP that accompanies phosphoryl transfer was coupled to oxidation of NADH using phosphoenolpyruvate (PEP) and a system having pyruvate kinase (PK) and lactic dehydrogenase (LDH). The oxidation of NADH was monitored by following the decrease of absorbance at 340 nm (e340=6.22 cm^−1 mM^−1) using a Beckman DU 650 spectrophotometer. Assay conditions for phosphorylated VEGF-R2Δ50 (indicated as FLVK-P in the tables below) were the following: 1 mM PEP; 250 μM NADH; 50 units of LDH/mL; 20 units of PK/mL; 5 mM DTT; 5.1 mM poly(E4Y1); 1 mM ATP; and 25 mM MgCl2 in 200 mM Hepes, pH 7.5. Assay conditions for unphosphorylated VEGF-R2Δ50 (indicated as FLVK in the tables) were the following: 1 mM PEP; 250 μM NADH; 50 units of LDH/mL; 20 units of PK/mL; 5 mM DTT; 20 mM poly(E4Y1); 3 mM ATP; and 60 mM MgCl2 and 2 mM MnCl2 in 200 mM Hepes, pH 7.5. Assays were initiated with 5 to 40 nM of enzyme. Ki values were determined by measuring enzyme activity in the presence of varying concentrations of test compounds. The data were analyzed using Enzyme Kinetic and Kaleidagraph software.

[2] = system: human umbilical vein endothelial cells (HUVEC); assay: HUVEC proliferation assay; format: cell-based; details: Homo sapiens, HUVEC; for inhibition at 0.15 µM: Table I screening results, 150 nM; for inhibition at 0.05 µM: 50 nM; for inhibition at 0.001 µM: 1 nM; for inhibition at 0.01 µM: 10 nM
Method in brief: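 Exponentially growing HUVEC were serum-starved 24 h (F12K + 1% FBS), pre-treated 1 h with compound (0.1% DMSO final), then stimulated with 6 ng/ml VEGF. Proliferation was read 72 h later by MTT reduction (A595). IC50 came from seven 0.5-log concentrations in triplicate; screens gave % inhibition relative to VEGF-only and starved wells.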

[3] = crude combinatorial amide library
[4] = Inhibition of HUVEC Proliferation, crude combinatorial urea library, read-out: Inhibition @ 50 nM
[5] = table following Table II (untitled), crude combinatorial library
[6] = table following Table II (untitled), crude combinatorial library, read-out: % inhibition @ 10 nM
[7] = crude combinatorial urea library, read-out: Inhibition of HUVEC Proliferation % inhibition @ 10 nM
[8] = crude combinatorial urea library, read-out: Inhibition of HUVEC Proliferation % inhibition @ 50 nM
[9] = Table II screening results, crude combinatorial amide library
[10] = Table II screening results, crude combinatorial amide library, read-out: % inhibition @ 10 nM
[11] = Inhibition of HUVEC Proliferation, crude combinatorial urea library, read-out: % inhibition @ 50 nM

inhibition at 100 µM ([1]; Table 2, at 100 μM): 46%
Compound: COc1cc(Nc2nc(N)c(C3=NC(c4ccc5ccccc5c4)CO3)s2)cc(OC)c1OC (stereo not drawn) [I(20)]

FLVK-P % inhibition @ 20 ([1]; Table 2, at 20 (head μM)): 71% @
Compound: COc1cc(Nc2nc(N)c(C3=NC(c4ccc(Br)cc4)CO3)s2)cc(OC)c1OC (racemic) [I(12), (R/S)-5-[4-(4-Bromo-phenyl)-4,5-dihydro-oxazol-2-yl]-N^2-(3,4,5-trimethoxy-phenyl)-thiazole-2,4-diamine]

Ki ([1]; Table 1): 98 nM
Compound: COc1cc(Nc2nc(N)c(-c3nc(-c4cccc(NS(=O)(=O)Cc5ccccc5)c4)cs3)s2)cc(OC)c1OC [D(2), N-{3-[4′-Amino-2′-(3,4,5-trimethoxy-phenylamino)-[2,5′]bithiazolyl-4-yl]-phenyl}-C-phenyl-methanesulfonamide]

FLVK-P % inhibition @ 50 ([1]; Table 1): 34% @
Compound: CCC(=O)Nc1nc(N)c(-c2nc(-c3cccc(NC(=O)c4cccc(Cl)c4)c3)no2)s1 [F(6), N-{3-[5-(4-Amino-2-propionylamino-thiazol-5-yl)-[1,2,4]oxadiazol-3-yl]-phenyl}-3-chloro-benzamide]

FLVK-P % inhibition @ 50 ([1]; Table 1): 31% @
Compound: Nc1nc(NC(=O)c2cccs2)sc1-c1nc(-c2cccc(NC(=O)c3cccc(Cl)c3)c2)no1 [F(5), Thiophene-2-carboxylic acid (4-amino-5-{3-[3-(3-chloro-benzoylamino)-phenyl]-[1,2,4]oxadiazol-5-yl}-thiazol-2-yl)-amide]

Ki ([1]; Table 2): 530 nM
Compound: COc1cc(Nc2nc(N)c(C3=NC(c4ccc(O)cc4)CO3)s2)cc(OC)c1OC (stereo not drawn) [I(11), S-4-{2-[4-Amino-2-(3,4,5-trimethoxy-phenylamino)-thiazol-5-yl]-4,5-dihydro-oxazol-4-yl}-phenol]

Ki ([1]; Table 2): 200 nM
Compound: COCOc1cccc(-c2noc(-c3sc(Nc4cc(OC)c(OC)c(OC)c4)nc3N)n2)c1 [B(4), 5-[3-(3-Methoxymethoxy-phenyl)-[1,2,4]oxadiazol-5-yl]-N^2-(3,4,5-trimethoxy-phenyl)-thiazole-2,4-diamine]

Ki ([1]; Table 1): 1.9 nM
Compound: COc1cc(Nc2nc(N)c(-c3nc(-c4cccc(NC(=O)c5cc(Cl)ccn5)c4)cs3)s2)cc(OC)c1OC [D(11), 4-Chloro-pyridine-2-carboxylic acid {3-[4′-amino-2′-(3,4,5-trimethoxy-phenylamino)-[2,5′]bithiazolyl-4-yl]-phenyl}-amide]

inhibition at 1 µM ([1]; Table 3, at 1 μM): 31%
Compound: CC(C)(C)OC(=O)Nc1cccc(-c2noc(-c3sc(Nc4cccc(C#N)c4)nc3N)n2)c1 [B(40)]

Ki ([1]; Table 1): 2.5 nM
Compound: COc1cc(Nc2nc(N)c(-c3nc(-c4cccc(NC(=O)c5cnc(C)s5)c4)cs3)s2)cc(OC)c1OC [D(53), 2-Methyl-thiazole-5-carboxylic acid {3-[4′-amino-2′-(3,4,5-trimethoxy-phenylamino)-[2,5′]bithiazolyl-4-yl]-phenyl}-amide]

Compound: COc1cc(Nc2nc(N)c(-c3nc(-c4cccc(NC(=O)c5ccccc5)c4)cs3)s2)cc(OC)c1OC [drawing 845]
inhibition at 0.15 µM [2, 3]: 33%

Compound: COc1cccc(C(=O)Nc2cc(-c3noc(-c4sc(NC(=O)NCC5CCC=CO5)nc4N)n3)c(F)cc2F)c1 (stereo not drawn)
inhibition at 0.05 µM [2, 4]: 93%

Compound: C/C=C/C(=O)Nc1ccc(C)c(-c2noc(-c3sc(Nc4cc(OC)c(OC)c(OC)c4)nc3N)n2)c1
inhibition at 0.001 µM [2, 5]: 9%
inhibition at 0.01 µM [2, 6]: 65%

Compound: COc1cccc(C(=O)Nc2cc(-c3noc(-c4sc(NC(=O)NCCCN(C)c5ccccc5)nc4N)n3)c(F)cc2F)c1
inhibition at 0.05 µM [2, 4]: 84%

Compound: COc1cccc(C(=O)Nc2cccc(-c3csc(-c4sc(NC(=O)NCCc5cncn5C)nc4N)n3)c2)c1
inhibition at 0.01 µM [2, 7]: -15%
inhibition at 0.05 µM [2, 8]: 15%

Compound: COc1cc(Nc2nc(N)c(-c3nc(-c4cccc(NC(=O)C5C[C@@H]6C=C[C@H]5C6)c4)cs3)s2)cc(OC)c1OC (stereo partly drawn)
inhibition at 0.15 µM [2, 3]: 37%

Compound: COc1cc(Nc2nc(N)c(-c3nc(-c4cc(NC(=O)CCCN(C)C)ccc4C)no3)s2)cc(OC)c1OC
inhibition at 0.001 µM [2, 5]: 5%
inhibition at 0.01 µM [2, 6]: 16%

Compound: COc1cc(Nc2nc(N)c(-c3nc(-c4cc(NC(=O)[C@@]56C[C@@H]7C[C@@H]5CC7(C)C6)ccc4C)no3)s2)cc(OC)c1OC
inhibition at 0.001 µM [2, 5]: 1%
inhibition at 0.01 µM [2, 6]: 23%

Compound: CNC(=O)Nc1nc(N)c(-c2nc(-c3cccc(NC(=O)CCC(=O)N4CCCC4)c3)cs2)s1
inhibition at 0.001 µM [2, 9]: 6%
inhibition at 0.01 µM [2, 10]: -10%

Compound: COc1cccc(C(=O)Nc2cc(-c3csc(-c4sc(NC(=O)NCCCN5CCCCC5C)nc4N)n3)c(F)cc2F)c1 (stereo not drawn)
inhibition at 0.05 µM [2, 11]: 86%

Compound: CCN(CC)CCNC(=O)Nc1nc(N)c(-c2nc(-c3cccc(NC(=O)c4cccc(OC)c4)c3)cs2)s1
inhibition at 0.01 µM [2, 7]: -38%
inhibition at 0.05 µM [2, 8]: 39%

Compound: CNC(=O)Nc1nc(N)c(-c2nc(-c3cccc(NC(=O)[C@@H]4CCC[C@@H]4O)c3)cs2)s1
inhibition at 0.001 µM [2, 9]: 15%
inhibition at 0.01 µM [2, 10]: 13%

Compound: COc1cccc(C(=O)Nc2cc(-c3csc(-c4sc(NC(=O)N[C@@H](CC(N)=O)C(N)=O)nc4N)n3)c(F)cc2F)c1
inhibition at 0.05 µM [2, 11]: 32%

Compound: COc1ccc2oc(C(=O)Nc3cccc(-c4csc(-c5sc(Nc6cc(OC)c(OC)c(OC)c6)nc5N)n4)c3)cc2c1
inhibition at 0.15 µM [2, 3]: 7%

Compound: COc1cc(Nc2nc(N)c(-c3nc(-c4cccc(NC(=O)c5cn(Cc6ccccc6)c6ccccc56)c4)cs3)s2)cc(OC)c1OC
inhibition at 0.15 µM [2, 3]: -11%

Compound: CNC(=O)Nc1nc(N)c(-c2nc(-c3cccc(NC(=O)CCCN(C)C)c3)cs2)s1
inhibition at 0.001 µM [2, 9]: -12%
inhibition at 0.01 µM [2, 10]: -40%

Compound: COc1cc(Nc2nc(N)c(-c3nc(-c4cccc(NC(=O)C5(c6ccccc6)CC5)c4)cs3)s2)cc(OC)c1OC
inhibition at 0.15 µM [2, 3]: 11%

Compound: COc1cc(Nc2nc(N)c(-c3nc(-c4cc(NC(=O)c5cc(=O)[nH]c(=O)[nH]5)ccc4C)no3)s2)cc(OC)c1OC
inhibition at 0.001 µM [2, 5]: -4%
inhibition at 0.01 µM [2, 6]: 4%

Compound: COc1cc(Nc2nc(N)c(-c3nc(-c4cc(NC(=O)C(=O)Cc5ccccc5)ccc4C)no3)s2)cc(OC)c1OC
inhibition at 0.001 µM [2, 5]: 23%
inhibition at 0.01 µM [2, 6]: 21%

Compound: COc1cccc(C(=O)Nc2cc(-c3csc(-c4sc(NC(=O)N[C@@H](CO)C(N)=O)nc4N)n3)c(F)cc2F)c1
inhibition at 0.05 µM [2, 11]: 69%

Compound: COc1cc(Nc2nc(N)c(-c3nc(-c4cccc(NC(=O)C5CC(=O)N5)c4)cs3)s2)cc(OC)c1OC (stereo not drawn)
inhibition at 0.15 µM [2, 3]: -2%

Compound: COc1cccc(C(=O)Nc2cc(-c3noc(-c4sc(NC(=O)NCC(C)(O)CO)nc4N)n3)c(F)cc2F)c1 (stereo not drawn)
inhibition at 0.05 µM [2, 4]: 45%

Compound: COc1cccc(C(=O)Nc2cc(-c3noc(-c4sc(NC(=O)NCCCN5CCN(C)CC5)nc4N)n3)c(F)cc2F)c1
inhibition at 0.05 µM [2, 4]: 72%

Compound: COc1cccc(C(=O)Nc2cc(-c3csc(-c4sc(NC(=O)N[C@H](CO)Cc5c[nH]cn5)nc4N)n3)c(F)cc2F)c1
inhibition at 0.05 µM [2, 11]: 47%

Compound: COc1cccc(C(=O)Nc2cc(-c3csc(-c4sc(NC(=O)NCCO)nc4N)n3)c(F)cc2F)c1
inhibition at 0.05 µM [2, 11]: 110%

Compound: C/C=C/CC(=O)Nc1cccc(-c2csc(-c3sc(Nc4cc(OC)c(OC)c(OC)c4)nc3N)n2)c1
inhibition at 0.15 µM [2, 3]: 38%

Compound: COc1cc(Nc2nc(N)c(-c3nc(-c4cc(NC(=O)[C@H]5C[C@@H](C)[C@@H](C)[C@H]5C)ccc4C)no3)s2)cc(OC)c1OC
inhibition at 0.001 µM [2, 5]: -21%
inhibition at 0.01 µM [2, 6]: 5%

Compound: CNC(=O)Nc1nc(N)c(-c2nc(-c3cccc(NC(=O)C4C[C@@H]5C[C@H]4CCC5O)c3)cs2)s1 (stereo partly drawn)
inhibition at 0.001 µM [2, 9]: 14%
inhibition at 0.01 µM [2, 10]: 21%

Compound: CNC(=O)Nc1nc(N)c(-c2nc(-c3cc(NC(=O)c4cccc(OC)c4)c(F)cc3F)cs2)s1
inhibition at 0.05 µM [2, 11]: 99%
